In US20090012045A1, “Methods of Treating Cell Proliferative Disorders” (RIGEL PHARMACEUTICALS, INC., priority 2007, published 2009):

Tests used:
Ret (h) = Ret (h) (Homo sapiens, UniProt P07949); test: RET kinase activity, [γ-33P-ATP] filter assay; assay type: biochemical
Ret = molecular target: T1, Ret (Homo sapiens, UniProt P07949); test: Ret autophosphorylation, fluorescence polarization assay; assay type: biochemical; settings: 4 ng Ret, 5 μM ATP, 20 min; read-out: IC50 for inhibition of Ret autophosphorylation
T1 construct: purchased Upstate 14-570
T1 sequence (P07949 658-1114 limits assumed): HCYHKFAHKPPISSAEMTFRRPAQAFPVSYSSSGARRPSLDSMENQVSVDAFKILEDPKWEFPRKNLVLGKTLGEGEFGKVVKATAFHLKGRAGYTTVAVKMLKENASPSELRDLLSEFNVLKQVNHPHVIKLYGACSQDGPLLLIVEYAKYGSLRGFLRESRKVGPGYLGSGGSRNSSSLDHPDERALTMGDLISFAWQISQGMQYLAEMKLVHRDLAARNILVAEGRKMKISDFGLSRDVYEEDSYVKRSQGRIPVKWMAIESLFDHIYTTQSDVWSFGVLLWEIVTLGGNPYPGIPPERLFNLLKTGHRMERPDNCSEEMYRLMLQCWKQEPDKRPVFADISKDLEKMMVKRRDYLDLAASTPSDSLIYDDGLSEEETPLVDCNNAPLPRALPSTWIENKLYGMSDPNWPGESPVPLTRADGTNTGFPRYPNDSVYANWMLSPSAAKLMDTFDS

[1] = in vitro metabolism of prodrug to active drug; assay type: in vitro ADME; settings: rat plasma, rat hepatic and intestinal microsomal preparations
Description: Although phosphate-containing prodrugs suitable for oral administration are of interest, skilled artisans will appreciate that prodrugs including phosphate-containing progroups R^p can be administered via other routes of administration, as phosphatases are distributed throughout the body. […] Thus, the only requirement is that the particular phosphate-containing progroup R^p selected should be removable under the conditions of intended use.

[2] = in vivo metabolism of prodrug to active drug
Description: It has recently been discovered that a phosphate-containing prodrug according to the structure illustrated below (Compound P-1):
19, 2006 (US2006/0211657 A1), at paragraphs 134-142 and 146 of the printed publication.

[3] = compound concentration 0.2 micromoles
[4] = compound concentration 1 micromoles
[5] = compound concentration 0.03 micromoles
[6] = compound concentration 0.3 micromoles
[7] = compound concentration 0.02 micromoles

Chain of Ret (h) (P07949 29-1114): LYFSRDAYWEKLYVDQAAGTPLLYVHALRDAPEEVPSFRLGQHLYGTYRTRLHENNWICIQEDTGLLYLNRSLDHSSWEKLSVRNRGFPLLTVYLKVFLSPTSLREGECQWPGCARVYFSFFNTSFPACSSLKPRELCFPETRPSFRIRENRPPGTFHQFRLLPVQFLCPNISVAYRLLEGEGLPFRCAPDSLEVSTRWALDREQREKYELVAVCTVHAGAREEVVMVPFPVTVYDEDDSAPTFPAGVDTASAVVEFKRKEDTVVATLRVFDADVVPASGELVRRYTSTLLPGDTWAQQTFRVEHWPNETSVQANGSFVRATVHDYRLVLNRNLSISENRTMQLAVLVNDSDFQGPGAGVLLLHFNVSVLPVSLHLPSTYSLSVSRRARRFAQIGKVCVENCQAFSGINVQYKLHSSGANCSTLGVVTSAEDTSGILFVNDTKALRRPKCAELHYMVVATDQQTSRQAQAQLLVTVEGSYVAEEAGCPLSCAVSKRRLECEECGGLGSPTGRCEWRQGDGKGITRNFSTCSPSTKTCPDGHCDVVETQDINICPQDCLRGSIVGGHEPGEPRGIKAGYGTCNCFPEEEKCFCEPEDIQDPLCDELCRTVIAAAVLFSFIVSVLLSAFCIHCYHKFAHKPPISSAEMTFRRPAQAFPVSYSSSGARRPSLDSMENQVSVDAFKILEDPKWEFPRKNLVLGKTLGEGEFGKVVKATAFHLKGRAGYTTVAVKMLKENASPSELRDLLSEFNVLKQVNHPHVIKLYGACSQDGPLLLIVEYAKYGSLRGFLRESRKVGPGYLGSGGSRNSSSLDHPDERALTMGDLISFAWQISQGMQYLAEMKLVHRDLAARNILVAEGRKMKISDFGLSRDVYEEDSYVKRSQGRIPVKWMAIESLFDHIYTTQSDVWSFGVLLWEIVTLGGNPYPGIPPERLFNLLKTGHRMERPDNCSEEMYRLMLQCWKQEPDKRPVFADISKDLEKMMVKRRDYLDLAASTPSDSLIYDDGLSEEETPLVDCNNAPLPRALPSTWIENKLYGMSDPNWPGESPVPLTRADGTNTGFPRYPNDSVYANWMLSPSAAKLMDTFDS

| RET kinase autophosphorylation activity as a percentage of control RET kinase activity (Ret (h); [3]) | RET kinase autophosphorylation activity as a percentage of control RET kinase activity (Ret (h); [4]) | IC50 (Ret) | Compound | further results |
| --- | --- | --- | --- | --- |
| 19% | 1% | – | Cc1ccc(Nc2ncc(F)c(Nc3ccc(OCC#N)cc3)n2)cc1S(N)(=O)=O [Compound 10] | – |
| – | 0% | 11.8 nM | 2-(3-(4-(2,2-difluoro-3-oxo-3,4-dihydro-2H-pyrido[3,2-b][1,4]oxazin-6-ylamino)-5-fluoropyrimidin-2-ylamino)phenoxy)-N-methylacetamide [Compound 2] | RET kinase autophosphorylation activity as a percentage of control RET kinase activity (Ret (h); [5]): 0%; RET kinase autophosphorylation activity as a percentage of control RET kinase activity (Ret (h); compound concentration 3 micromoles): 0% |
| – | – | 7.3 nM | COc1cc(Nc2ncc(F)c(Nc3ccc4c(n3)NC(=O)C(C)(C)O4)n2)cc(O)c1OC [Compound 4, 6-(5-fluoro-2-(3-hydroxy-4,5-dimethoxy-phenylamino)pyrimidin-4-ylamino)-2,2-dimethyl-2H-pyrido[3,2-b][1,4]oxazin-3(4H)-one] | – |
| – | 0% | – | Cc1noc(COc2ccc(Nc3nc(Nc4cccc(O)c4)ncc3F)cc2)n1 [Compound 5, 3-(5-fluoro-4-(4-((3-methyl-1,2,4-oxadiazol-5-yl)methoxy)phenylamino)pyrimidin-2-ylamino)phenol] | RET kinase autophosphorylation activity as a percentage of control RET kinase activity (Ret (h); compound concentration 0.01 micromoles): 0%; RET kinase autophosphorylation activity as a percentage of control RET kinase activity (Ret (h); [5]): 0%; RET kinase autophosphorylation activity as a percentage of control RET kinase activity (Ret (h); compound concentration 0.1 micromoles): 0%; RET kinase autophosphorylation activity as a percentage of control RET kinase activity (Ret (h); [6]): 0% |
| 34% | 2% | – | Cc1cc(Nc2ncc(F)c(NC3CCCC3C(N)=O)n2)ccc1N1CCN(C)CC1 (centres unmarked) [Compound 7, 2-(5-fluoro-2-(3-methyl-4-(4-methylpiperazin-1-yl)phenylamino)pyrimidin-4-ylamino)cyclo-pentanecarboxamide] | RET kinase autophosphorylation activity as a percentage of control RET kinase activity (Ret (h); [7]): 74% |
| 26% | 4% | – | Cc1cc(Nc2cc(N3CCN(C)CC3)nc(Sc3ccc(NC(=O)C4CC4)cc3)n2)[nH]n1 [Compound 6, N-(4-(4-(3-methyl-1H-pyrazol-5-ylamino)-6-(4-methylpiperazin-1-yl)pyrimidin-2-ylthio)phenyl)cyclopropanecarboxamide] | RET kinase autophosphorylation activity as a percentage of control RET kinase activity (Ret (h); [7]): 78% |
| – | 11% | – | COc1cc(Nc2ncc(F)c(Nc3ccc4c(n3)N(COP(=O)(O)O)C(=O)C(C)(C)O4)n2)cc(OC)c1OC [Compound 9, (6-(5-fluoro-2-(3,4,5-trimethoxyphenylamino)pyrimidin-4-ylamino)-2,2-dimethyl-3-oxo-2H-pyrido[3,2-b][1,4]oxazin-4(3H)-yl)methyldihydrogenphosphate] | metabolism of prodrug to the active drug Compound 1 [1]: metabolize to the active drug Compound 1; RET kinase autophosphorylation activity as a percentage of control RET kinase activity (Ret (h); [6]): 47%; metabolism of prodrug to the active drug Compound 1 [2]: metabolizes in vivo to the corresponding active 2,4-pyrimidinediamine compound |
| – | – | 16.5 nM | Cc1nc2ccc(Nc3ncc(F)c(Nc4ccc5c(c4)NC(=O)C(C)(C)S5)n3)cc2[nH]1 [Compound 3, 6-(5-fluoro-2-(2-methyl-1H-benzo[d]imidazol-6-ylamino)pyrimidin-4-ylamino)-2,3-dimethyl-2H-benzo[b][1,4]thiazin-3(4H)-one] | – |
